{
  "source": "patent US10538571B2",
  "about": "“Compositions and methods for neurological diseases” (Coda Biotherapeutics, Inc., priority 2017, dated 2020)",
  "molecular_target": "T1, SEQ ID NO:33 with substitution W77M (Homo sapiens, UniProt P36544, F159M/H163T/I152M/R155K/V154L/W156N/W77M/Y151P)",
  "T1 construct": "expressed in transfected cells; host or cells: Lenti-X 293T (HEK293T) cells, pcDNA3.1(+) plasmid",
  "T1 sequence (P36544 with tags, fused parts or gaps W77M/Y151P/I152M/V154L/R155K/W156N/F159M/H163T)": "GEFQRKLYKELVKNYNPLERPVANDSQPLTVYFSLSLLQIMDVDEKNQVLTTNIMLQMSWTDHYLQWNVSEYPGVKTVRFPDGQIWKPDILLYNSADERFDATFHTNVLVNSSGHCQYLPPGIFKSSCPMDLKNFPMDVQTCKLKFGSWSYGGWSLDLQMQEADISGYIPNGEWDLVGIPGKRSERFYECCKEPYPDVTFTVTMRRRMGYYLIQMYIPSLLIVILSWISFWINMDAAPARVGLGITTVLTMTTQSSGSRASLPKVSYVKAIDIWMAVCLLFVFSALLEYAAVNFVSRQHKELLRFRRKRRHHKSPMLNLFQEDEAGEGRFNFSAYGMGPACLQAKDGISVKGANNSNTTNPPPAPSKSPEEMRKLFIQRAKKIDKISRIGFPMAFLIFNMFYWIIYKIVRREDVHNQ",
  "experiment": "Plate reader YFP quench (anion reporter) assay, dose response curves",
  "assay_type": "cell-based",
  "conditions": "FIG. 9B",
  "description": "Lenti-X 293T cells (LX293T, Clontech) were maintained in DMEM containing 10% FBS and 1% penicillin/streptomycin (Invitrogen). […] The next day, the cells were transiently transfected with 0.1 μg of DNA per well using standard Fugene protocol (Promega). On the day of assay, cells were washed 2 times in 1× extracellular solution (1×ECS: 140 mM NaCl, 5 mM KCl, 1 mM MgCl2, 2 mM CaCl2, 10 mM HEPES, 10 mM glucose, pH 7.2, mOsms 300). After the last wash, 100 μL of 1×ECS was added to the wells and the plate was incubated at 37° C. for 30 min. While incubating the plate, the drugs were diluted to a 2× concentration in 1×ECS-NaI (same components as 1×ECS except the 140 mM NaCl was replaced by 140 mM NaI). The plates were then read on a Flexstation3 (Molecular Devices). Each well, 8 wells at a time, of the plate is read for 2 min using a Flexstation3 (Molecular Devices) as follows: 1) a baseline YFP fluorescence is read for 17 sec, 2) 100 μL of ligand is added, and 3) the changes in YFP fluorescence are then measured every 1.3 sec for the remaining time.\nTo further tune the responsiveness of the engineered LGIC receptors to native and non-native ligands, the binding pocket of each ligand in the alpha7-nAChR was modeled and the amino acid residues that form the binding pocket were mapped. […]",
  "data": [
    {"smiles": "c1cnc2c(c1)C[C@@]1(CN3CCC1CC3)O2", "note": "[AZD-0328]", "values": [
      {"measurement": "increase in EC50 (rightward shift) compared to unmutated SEQ ID NO:33", "value": "> 2", "unit": "log"}
    ]}
  ]
}
